Assay results: publication PMC7413254 (Nature Communications, 2020)
Like-named read-outs stand apart in the source and are kept apart here.

Key:
non-expressing oocytes [1] = format: cell-based, Xenopus laevis; conditions: non-expressing oocytes, total [3H]CQ transport, normalised to the oocyte type control
Summary of the method: (§1)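 Oocytes (ten per treatment, ≥4 independent frogs/days) were preloaded by injecting VF-6 in 25 nL ND96 at pH 5.0, 5.5, 6.0 or 7.0, or Na^+-free choline buffer, then uptake run 1.5 h, 27.5 °C, ND96 pH 5.5 by default. Internal concentrations assumed ~400 nL oocyte volume.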

PfCRT^Dd2 [2] = target: T1, PfCRT^Dd2 (Plasmodium falciparum, UniProt Q9N623, A220S/I356T/K76T/M74I/N326S/N75E/Q271E/R371I); experiment: [3H]CQ uptake into Xenopus oocytes, cis-inhibition by unlabelled solute; format: cell-based; conditions: PfCRTDd2 oocytes, background [3H]CQ accumulation subtracted, normalised to oocyte type control
T1 sequence (Q9N623 whole entry A220S/I356T/K76T/M74I/N326S/N75E/Q271E/R371I): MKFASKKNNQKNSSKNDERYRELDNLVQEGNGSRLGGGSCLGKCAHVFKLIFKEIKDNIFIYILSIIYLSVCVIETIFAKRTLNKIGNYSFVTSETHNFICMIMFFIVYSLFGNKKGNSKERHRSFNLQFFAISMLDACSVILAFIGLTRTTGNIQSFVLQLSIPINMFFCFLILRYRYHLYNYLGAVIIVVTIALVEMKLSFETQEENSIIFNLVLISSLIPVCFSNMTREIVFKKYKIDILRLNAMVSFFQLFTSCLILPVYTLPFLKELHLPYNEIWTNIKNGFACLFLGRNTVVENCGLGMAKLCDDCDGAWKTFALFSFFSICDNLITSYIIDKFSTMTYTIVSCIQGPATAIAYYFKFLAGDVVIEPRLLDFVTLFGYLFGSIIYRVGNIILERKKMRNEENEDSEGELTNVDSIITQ
Summary of the method: (§2)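 ND96, pH 5.5, 1.5 h, 27.5 °C; uptake direction acidic outside → oocyte cytosol, mimicking efflux from digestive vacuole. Ice-cold wash stop, 10% SDS lysis, scintillation counting. Ten oocytes/treatment, ≥4 independent experiments.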

PfCRT^Ecu1110 [3] = target: T2, PfCRT^Ecu1110 (Plasmodium falciparum, UniProt Q9N623, A220S/I356L/K76T/N326D); experiment: as above; format: cell-based; conditions: for Uptake of [3H]CQ (% PfCRTEcu1110 control), cis-inhibition / PfCRT-mediated [3H]CQ transport, cis-inhibition (% PfCRTEcu1110 control): PfCRTEcu1110 oocytes; for Uptake of [3H]CQ (% PfCRTEcu1110 control), cis-inhibition: total [3H]CQ transport, normalised to the oocyte type control; for PfCRT-mediated [3H]CQ transport, cis-inhibition (% PfCRTEcu1110 control): background [3H]CQ accumulation subtracted, normalised to oocyte type control; for [3H]CQ transport (% PfCRTEcu1110 control), cis-inhibition, PfCRTEcu1110: PfCRT-mediated component (background subtracted), sheet title says normalised to PfCRTDd2 control, mean ± SEM, SEM
T2 sequence (Q9N623 whole entry A220S/I356L/K76T/N326D): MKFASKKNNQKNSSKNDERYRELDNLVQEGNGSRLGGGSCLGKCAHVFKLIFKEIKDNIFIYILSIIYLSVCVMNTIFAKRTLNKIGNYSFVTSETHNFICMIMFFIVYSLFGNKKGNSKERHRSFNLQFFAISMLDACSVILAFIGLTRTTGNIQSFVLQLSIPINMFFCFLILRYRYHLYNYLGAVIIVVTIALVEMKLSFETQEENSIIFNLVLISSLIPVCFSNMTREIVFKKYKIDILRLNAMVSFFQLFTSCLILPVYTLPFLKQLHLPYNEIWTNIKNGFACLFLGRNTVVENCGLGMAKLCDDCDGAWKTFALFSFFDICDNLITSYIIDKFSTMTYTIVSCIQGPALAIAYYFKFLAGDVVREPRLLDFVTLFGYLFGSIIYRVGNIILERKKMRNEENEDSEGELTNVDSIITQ
Summary of the method: as §2

PfCRT^3D7 [4] = target: T3, PfCRT^3D7 (Plasmodium falciparum, UniProt Q8IBZ9); experiment: cell-based; format: cell-based; conditions: PfCRT3D7 oocytes, total [3H]CQ transport, normalised to the oocyte type control
T3 sequence (Q8IBZ9 59-398): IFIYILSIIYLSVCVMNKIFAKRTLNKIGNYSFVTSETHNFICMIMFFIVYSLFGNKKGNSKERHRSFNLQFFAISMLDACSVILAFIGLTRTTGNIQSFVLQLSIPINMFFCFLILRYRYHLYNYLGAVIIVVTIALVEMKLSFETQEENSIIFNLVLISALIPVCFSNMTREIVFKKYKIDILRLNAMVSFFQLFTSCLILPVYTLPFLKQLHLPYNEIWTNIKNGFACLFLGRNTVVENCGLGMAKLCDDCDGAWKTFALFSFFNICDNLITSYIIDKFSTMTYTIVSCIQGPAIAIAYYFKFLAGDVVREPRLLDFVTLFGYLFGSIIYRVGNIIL
Summary of the method: as §2

PfNT1 = target: T4, PfNT1 (Plasmodium falciparum, UniProt Q8IDM6); experiment: cell-based; format: cell-based; conditions: PfNT1 oocytes, total [3H]CQ transport, normalised to the oocyte type control
T4 construct: expressed in transfected cells; host or cells: Xenopus laevis oocytes (stage V-VI), cRNA-injected
T4 sequence (Q8IDM6 whole entry): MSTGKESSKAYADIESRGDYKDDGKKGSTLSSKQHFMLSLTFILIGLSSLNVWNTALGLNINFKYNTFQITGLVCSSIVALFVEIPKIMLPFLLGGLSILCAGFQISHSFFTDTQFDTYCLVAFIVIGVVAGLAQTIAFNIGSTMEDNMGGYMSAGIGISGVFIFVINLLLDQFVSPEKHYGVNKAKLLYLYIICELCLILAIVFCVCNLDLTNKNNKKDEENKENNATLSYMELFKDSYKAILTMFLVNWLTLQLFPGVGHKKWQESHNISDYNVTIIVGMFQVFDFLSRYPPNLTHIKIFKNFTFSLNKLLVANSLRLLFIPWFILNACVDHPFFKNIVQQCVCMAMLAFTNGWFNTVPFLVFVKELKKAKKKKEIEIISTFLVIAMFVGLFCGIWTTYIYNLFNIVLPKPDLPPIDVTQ
Summary of the method: as §1

PfCRT^Dd2 [5] = target: T1, PfCRT^Dd2; experiment: cell-based; format: cell-based; conditions: for Uptake of [3H]CQ (% PfCRTDd2 control), trans-stimulation / PfCRT-mediated [3H]CQ transport, trans-stimulation (% PfCRTDd2 control): PfCRTDd2 oocytes; for Uptake of [3H]CQ (% PfCRTDd2 control), trans-stimulation: total [3H]CQ transport, normalised to the oocyte type control; for PfCRT-mediated [3H]CQ transport, trans-stimulation (% PfCRTDd2 control): normalised to oocyte type control; for [3H]CQ transport (% PfCRTDd2 control), trans-stimulation, PfCRTDd2: PfCRT-mediated component (background subtracted), mean ± SEM, SEM
Summary of the method: as §1

PfCRT^Ecu1110 [6] = target: T2, PfCRT^Ecu1110; experiment: cell-based; format: cell-based; conditions: for Uptake of [3H]CQ (% PfCRTEcu1110 control), trans-stimulation / PfCRT-mediated [3H]CQ transport, trans-stimulation (% PfCRTEcu1110 control): PfCRTEcu1110 oocytes; for Uptake of [3H]CQ (% PfCRTEcu1110 control), trans-stimulation: total [3H]CQ transport, normalised to the oocyte type control; for PfCRT-mediated [3H]CQ transport, trans-stimulation (% PfCRTEcu1110 control): normalised to oocyte type control; for [3H]CQ transport (% PfCRTDd2 control), trans-stimulation, PfCRTEcu1110: PfCRT-mediated component (background subtracted), sheet title says normalised to PfCRTDd2 control, mean ± SEM, SEM
Summary of the method: as §1

PfCRT^3D7 [7] = target: T3, PfCRT^3D7; experiment: cell-based; format: cell-based; conditions: for Uptake of [3H]CQ (% PfCRT3D7 control), trans-stimulation / PfCRT-mediated [3H]CQ transport, trans-stimulation (% PfCRT3D7 control): PfCRT3D7 oocytes; for Uptake of [3H]CQ (% PfCRT3D7 control), trans-stimulation: total [3H]CQ transport, normalised to the oocyte type control; for PfCRT-mediated [3H]CQ transport, trans-stimulation (% PfCRT3D7 control): normalised to oocyte type control
Summary of the method: as §1

non-expressing oocytes [8] = experiment: cells; format: cell-based, Xenopus laevis; conditions: non-expressing oocytes, total [3H]CQ transport, normalised to the oocyte type control
Summary of the method: as §2

[9] = [test solute]i = 45 mM (30 mM for some solutes due to solubility)
[10] = [test solute]i = 5 mM (intracellular)
[11] = [test solute]i = 45 mM (intracellular; 30 mM for some solutes due to solubility)
[12] = [test solute]i = 5 mM (injected)

PHFD [PD-4]
Uptake of [3H]CQ (% non-expressing oocyte control), trans-stimulation (non-expressing oocytes [1]; [test solute]i = 5 mM): 98 ± 2.0 % non-expressing oocyte control | Uptake of [3H]CQ (% non-expressing oocyte control), trans-stimulation (non-expressing oocytes [1]; [9]): 99 ± 3.7 % non-expressing oocyte control | PfCRT-mediated [3H]CQ transport, cis-inhibition (% PfCRTDd2 control) (PfCRT^Dd2 [2]; [test solute] = 0.5 mM): 56 ± 1.1 % PfCRTDd2 control | PfCRT-mediated [3H]CQ transport, cis-inhibition (% PfCRTDd2 control) (PfCRT^Dd2 [2]; [test solute] = 1 mM): 42 ± 0.5 % PfCRTDd2 control | PfCRT-mediated [3H]CQ transport, cis-inhibition (% PfCRTDd2 control) (PfCRT^Dd2 [2]; [test solute] = 2 mM): 17 ± 0.7 % PfCRTDd2 control | Uptake of [3H]CQ (% PfCRTEcu1110 control), cis-inhibition (PfCRT^Ecu1110 [3]; [test solute] = 0.5 mM): 54 ± 3.1 % PfCRTEcu1110 control | Uptake of [3H]CQ (% PfCRTEcu1110 control), cis-inhibition (PfCRT^Ecu1110 [3]; [test solute] = 1 mM): 38 ± 3.1 % PfCRTEcu1110 control | Uptake of [3H]CQ (% PfCRTEcu1110 control), cis-inhibition (PfCRT^Ecu1110 [3]; [test solute] = 2 mM): 27 ± 0.8 % PfCRTEcu1110 control | PfCRT-mediated [3H]CQ transport, cis-inhibition (% PfCRTEcu1110 control) (PfCRT^Ecu1110 [3]; [test solute] = 0.5 mM): 49 ± 2.1 % PfCRTEcu1110 control | PfCRT-mediated [3H]CQ transport, cis-inhibition (% PfCRTEcu1110 control) (PfCRT^Ecu1110 [3]; [test solute] = 1 mM): 33 ± 1.5 % PfCRTEcu1110 control | PfCRT-mediated [3H]CQ transport, cis-inhibition (% PfCRTEcu1110 control) (PfCRT^Ecu1110 [3]; [test solute] = 2 mM): 24 ± 1.1 % PfCRTEcu1110 control | [3H]CQ transport (% PfCRTEcu1110 control), cis-inhibition, PfCRTEcu1110 (PfCRT^Ecu1110 [3]; [test solute] = 0.5 mM): 15 ± 0.5 % PfCRTEcu1110 control | [3H]CQ transport (% PfCRTEcu1110 control), cis-inhibition, PfCRTEcu1110 (PfCRT^Ecu1110 [3]; [test solute] = 1 mM): 10 ± 0.1 % PfCRTEcu1110 control | [3H]CQ transport (% PfCRTEcu1110 control), cis-inhibition, PfCRTEcu1110 (PfCRT^Ecu1110 [3]; [test solute] = 2 mM): 8.0 ± 0.06 % PfCRTEcu1110 control | Uptake of [3H]CQ (% PfCRT3D7 control), cis-inhibition (PfCRT^3D7 [4]; [test solute] = 0.5 mM): 98 ± 5.6 % PfCRT3D7 control | Uptake of [3H]CQ (% PfCRT3D7 control), cis-inhibition (PfCRT^3D7 [4]; [test solute] = 1 mM): 100 ± 5.5 % PfCRT3D7 control | Uptake of [3H]CQ (% PfCRT3D7 control), cis-inhibition (PfCRT^3D7 [4]; [test solute] = 2 mM): 99 ± 3.5 % PfCRT3D7 control | Uptake of [3H]CQ (% PfNT1 control), trans-stimulation (PfNT1; [test solute]i = 5 mM): 100 ± 3.5 % PfNT1 control | Uptake of [3H]CQ (% PfNT1 control), trans-stimulation (PfNT1; [9]): 98 ± 2.2 % PfNT1 control | Uptake of [3H]CQ (% PfCRTDd2 control), trans-stimulation (PfCRT^Dd2 [5]; [test solute]i = 5 mM): 102 ± 2.4 % PfCRTDd2 control | Uptake of [3H]CQ (% PfCRTDd2 control), trans-stimulation (PfCRT^Dd2 [5]; [9]): 99 ± 2.9 % PfCRTDd2 control | PfCRT-mediated [3H]CQ transport, trans-stimulation (% PfCRTDd2 control) (PfCRT^Dd2 [5]; [10]): 100 ± 4.2 % PfCRTDd2 control | PfCRT-mediated [3H]CQ transport, trans-stimulation (% PfCRTDd2 control) (PfCRT^Dd2 [5]; [11]): 97 ± 2.8 % PfCRTDd2 control | [3H]CQ transport (% PfCRTDd2 control), trans-stimulation, PfCRTDd2 (PfCRT^Dd2 [5]; [12]): 100 ± 4.2 % PfCRTDd2 control | [3H]CQ transport (% PfCRTDd2 control), trans-stimulation, PfCRTDd2 (PfCRT^Dd2 [5]; [9]): 97 ± 2.8 % PfCRTDd2 control | Uptake of [3H]CQ (% PfCRTEcu1110 control), trans-stimulation (PfCRT^Ecu1110 [6]; [test solute]i = 5 mM): 98 ± 1.4 % PfCRTEcu1110 control | Uptake of [3H]CQ (% PfCRTEcu1110 control), trans-stimulation (PfCRT^Ecu1110 [6]; [9]): 100 ± 3.5 % PfCRTEcu1110 control | PfCRT-mediated [3H]CQ transport, trans-stimulation (% PfCRTEcu1110 control) (PfCRT^Ecu1110 [6]; [10]): 96 ± 3.2 % PfCRTEcu1110 control | PfCRT-mediated [3H]CQ transport, trans-stimulation (% PfCRTEcu1110 control) (PfCRT^Ecu1110 [6]; [11]): 98 ± 4.3 % PfCRTEcu1110 control | [3H]CQ transport (% PfCRTDd2 control), trans-stimulation, PfCRTEcu1110 (PfCRT^Ecu1110 [6]; [12]): 29 ± 1.4 % PfCRTEcu1110 control | [3H]CQ transport (% PfCRTDd2 control), trans-stimulation, PfCRTEcu1110 (PfCRT^Ecu1110 [6]; [9]): 30 ± 1.6 % PfCRTEcu1110 control | Uptake of [3H]CQ (% PfCRT3D7 control), trans-stimulation (PfCRT^3D7 [7]; [test solute]i = 5 mM): 99 ± 3.6 % PfCRT3D7 control | Uptake of [3H]CQ (% PfCRT3D7 control), trans-stimulation (PfCRT^3D7 [7]; [9]): 100 ± 2.1 % PfCRT3D7 control | [3H]CQ transport (% PfCRT3D7 control), trans-stimulation, PfCRT3D7 (PfCRT^3D7 [7]; SEM): 0.1 ± 0.02 | PfCRT-mediated [3H]CQ transport, trans-stimulation (% PfCRT3D7 control) (PfCRT^3D7 [7]; [10]): 97 ± 2.9 % PfCRT3D7 control | PfCRT-mediated [3H]CQ transport, trans-stimulation (% PfCRT3D7 control) (PfCRT^3D7 [7]; [11]): 98 ± 4.2 % PfCRT3D7 control | Uptake of [3H]CQ (% non-expressing oocyte control), cis-inhibition (non-expressing oocytes [8]; [test solute] = 0.5 mM): 100 ± 4.3 % non-expressing oocyte control | Uptake of [3H]CQ (% non-expressing oocyte control), cis-inhibition (non-expressing oocytes [8]; [test solute] = 1 mM): 100 ± 3.7 % non-expressing oocyte control | Uptake of [3H]CQ (% non-expressing oocyte control), cis-inhibition (non-expressing oocytes [8]; [test solute] = 2 mM): 100 ± 4.6 % non-expressing oocyte control
